Test results published in patent US5929124A, “Antimicrobial diterpenes” (priority 1997, dated 1999).
Converted amounts (≈) assume the structure as drawn. Read-outs that look alike come from different tables or passages of the source. Each block holds one compound with its values, some of them ahead of it.

Key:
C. albicans = assay: Inhibition of Candida spp. culture (broth microdilution, XTT); type: cell-based, Candida albicans (strain ATCC #90028); details: for minimum inhibitory concentration (MIC) for known antifungal agents: assay validation, result in words
Experimental: (§1) Formulae (i) was isolated as described in Example 1. Plant material was collected in Zimbabwe. A voucher specimen is deposited at the Institute of Pharmacognosy and Phytochemistry, University of Lausanne, Lausanne, Switzerland. Antimicrobial assays are performed by a modification of the broth microdilution susceptibility assay using the tetrazolium salt XTT (Examples 2-6, see summary of results in Table 1 below).
(§2) Candida albicans (strain ATCC #90028), Candida krusei (strain ATCC #90030), and Torulopsis (Candida) glabrata (strain ATCC #6258) were subcultured from cryopreserved stocks onto sabourand dextrose agar plates. Blastoconidia were suspended into RPMI-MOPS (media) and inoculated (500 CFW/well) into 96-well plates containing test compounds in a final volume of 100 μL/well. After 22 hours at 35° C., 25 μL of XTT (2,3-bis(2-methoxy-4-nitro-5-sulfophenyl)-5-[(phenylamino)carbonyl]-2H-tetrazolium hydroxide), (100 μg/mL) with PMS (phenazine methyl sulfate, 5 μM) were added to each well, followed by 2 hours of shaking. Growth was assessed spectrophotometrically by measuring the appearance of soluble formazan stain at 450 nm using an Emax microplate reader.

T. glabrata = assay: as above; type: cell-based, Torulopsis (Candida) glabrata (strain ATCC #6258); details: Nakaseomyces glabratus, 22 hours at 35° C.
Experimental: as §1, §2

A. fumigatus = assay: Inhibition of Aspergillus spp. culture (broth microdilution, XTT); type: cell-based, Aspergillus fumigatus (strain ATCC#8001); details: 48 hours at 37° C.
Experimental: as §1
Aspergillus fumigatus (strain ATCC#8001) was subcultured from a refrigerated potato dextrose agar slant (immersed in mineral oil) onto a fresh potato dextrose agar slant. After 72 hours of incubation at 37° C., the slants were filled with 7 mL sterile, cold, distilled water and put on ice for 2 hours. After disrupting the tissue, spores were filtered through sterile gauze using a 30 cc syringe. The resulting mixture was centrifuged for 10 minutes at 2,000 rpm. The supernatant was discarded and the pellet was resuspended in 5 mL sterile, distilled water. […] Growth was assessed spectrophotometrically by measuring the appearance of soluble formazan stain at 450/650 nm using an Emax micro plate reader. Validation of the assay was confirmed by determination of the A. fumigatus minimum inhibitory concentration (MIC) for amphotericin B. MICs were also scored visually.

Vero cell proliferation = type: cell-based; details: monkey, vero cells; read-out: IC50 (Vero cell proliferation)
Text: Formula (ii) compounds are those compounds of formula (I) wherein R13 is --O--bonded to R14 and R14 is --CHORa --, Ra being hydrogen, C1-4 alkyl, or formula (a). Formula (ii) compounds may be obtained according to Example 7. […] In general, inhibition of a microbial infection means inhibiting microbial growth, relative to an untreated control, by at least 30%, and preferably by 50% or 75%. Cytotoxicity assays utilized the same dye as a marker of cell viability.

S. aureus = assay: Inhibition of Staphylococcus aureus culture; type: cell-based; details: 24 hours at 35° C.
Experimental: as §1
Strains of Staphylococcus aureus were subcultured from cryopreserved stocks onto sheep blood agar plates (methicillin-sensitive reference strain ATCC #29213. Methicillin-resistant (MRSA) clinical isolate was obtained from Dr. Gary Doern, Director of Clinical Microbiology, University of Massachusetts Medical Center, Worcester, Mass.). Bacteria were suspended in Mueller Hinton broth and inoculated (5×10^4 CFU/well) into 96-well plates containing test compounds in a final volume of 100 μL/well. After 24 hours at 35° C., plates were shaken for 1 minute and turbidity was read manually at 650 nm using a Emax microplate reader (Molecular Devices, Sunnyvale, Calif. The MIC values of vancomycin and gentamicin in this screening assay are determined to be approximately 1 μg/mL and 0.6 μg/mL, respectively, well within the reported ranges (National Committee on Clinical Laboratory Standards Vol. 14, No. 16, 1994, Table 3).

C. krusei = assay: Inhibition of Candida spp. culture (broth microdilution, XTT); type: cell-based, Candida krusei (strain ATCC #90030); details: Pichia kudriavzevii, 22 hours at 35° C.
Experimental: as §1, §2

Trichophyton rubrum = assay: Inhibition of dermatophytes; type: cell-based; details: T. rubrum, 96 hours, 10 isolates
Experimental: (§3) The in vitro activity of formula (I) against the dermatophytes Trichophyton rubrum, Trichophyton mentagrophytes, and Epidermophyton floccosum was measured. The data were collected after incubating for 96 hours.

Epidermophyton floccosum = assay: Inhibition of dermatophytes; type: cell-based; details: E. floccosum, 96 hours, 1 isolate
Experimental: as §3

[1] = tested on: Trichophyton mentagrophytes; assay: Inhibition of dermatophytes; type: cell-based; details: T. mentagrophytes, 96 hours, 13 isolates
Experimental: as §3

[2] = tested on: Candida albicans strain # 64; assay: In vivo efficacy against fluconazole-sensitive candidiasis in mice; set-up: species or system ICR mice infected with Candida albicans
Experimental: Immunocompetent mice (ICR, Sprague-Dawley, Indianapolis, IN) were infected with a pathogenic strain (# 64) of Candida albicans which is sensitive to fluconazole. After 24 hours, dissemination of infection was shown by organ colony counts (kidney, spleen, and liver) greater than 10^5 CFU. Treatment began 24 hours after infection with the indicated dosage once a day for 10 days. One group received 20 mg/kg of the compound administered via oral gavage in 0.1 mL. The test compound was formulated in 40% polyethyleneglycol (MW 400). Another group received 40 mg/kg of th compound, administered as above. A third group received polyethylene glycol, and the last group received fluconazole dosed orally at 40 mg/kg twice a day.
After 30 days the percent survival in the group treated with fluconazole and the group treated with test compound (40 mg per kg body weight, twice a day) was measured. In addition, the organ fungal load was measured at days 1, 10, and 30.

[3] = Candida albicans, 22 hours at 35° C.
[4] = Staphylococcus aureus, read-out: MIC

Compound: OC(Cn1cncn1)(Cn1cncn1)c1ccc(F)cc1F [fluconazole]
- minimum inhibitory concentration (MIC) for known antifungal agents (C. albicans): within reported ranges

Compound: CC1=C(CCO)C(=O)C(O)=C2C1=CC(=O)[C@@H]1C(C)(C)CCC[C@@]21C (relative stereo) [Formula (i), (4bR*,8aR*)-4b,5,6,7,8,8a-hexahydro-4-hydroxy-4b,8,8,1-tetramethyl-2-(2-hydroxy-ethyl) -3,9-phenanthrenedione]
- IC50 (T. glabrata): 0.44 mg/L
- MIC (T. glabrata): 1.65 mg/L
- IC50 (A. fumigatus): 6.49 mg/L
- MIC (A. fumigatus): 6.25 mg/L
- CC50 (Vero cell proliferation): 12.7 mg/L
- IC50 (C. albicans; [3]): 0.12 mg/L
- MIC (C. albicans; [3]): 0.78 mg/L
- MIC (S. aureus; [4]): 1.56 mg/L
- IC50 (C. krusei): 0.55 mg/L
- MIC (C. krusei): 1.56 mg/L
- MIC (Trichophyton rubrum; read-out: MIC range): 2 to 8 mg/L
- MIC (Trichophyton rubrum; read-out: average MIC): 5 mg/L
- MIC (Epidermophyton floccosum): 4 mg/L
- MIC ([1]; read-out: MIC range): 0.5 to 8 mg/L
- MIC ([1]; read-out: average MIC): 2.7 mg/L

Compound: NC(=O)OC[C@H](O)[C@@H](O)[C@H](N)C(=O)N[C@H](C(=O)O)[C@H]1O[C@@H](n2cc(C(=O)O)c(=O)[nH]c2=O)[C@H](O)[C@@H]1O [polyoxin D]
- minimum inhibitory concentration (MIC) for known antifungal agents (C. albicans): within reported ranges

- minimum inhibitory concentration (MIC) for known antifungal agents (C. albicans): within reported ranges
Compound: Nc1nc(=O)[nH]cc1F [5-flucytosine]

Compound: CN[C@H](CC(C)C)C(=O)N[C@H]1C(=O)N[C@@H](CC(N)=O)C(=O)N[C@H]2C(=O)N[C@H]3C(=O)N[C@H](C(=O)N[C@H](C(=O)O)c4cc(O)cc(O)c4-c4cc3ccc4O)[C@H](O)c3ccc(c(Cl)c3)Oc3cc2cc(c3O[C@@H]2O[C@H](CO)[C@@H](O)[C@H](O)[C@H]2O[C@H]2C[C@](C)(N)[C@H](O)[C@H](C)O2)Oc2ccc(cc2Cl)[C@H]1O [vancomycin]
- MIC (S. aureus; [4]): ~1 mg/L (≈ 0.69 µM)

- minimum inhibitory concentration (MIC) for known antifungal agents (C. albicans): within reported ranges
Compound: C[C@@H]([C@H](N)C(=O)N[C@H](C(=O)O)[C@H]1O[C@@H](n2ccc(=O)[nH]c2=O)[C@H](O)[C@@H]1O)[C@H](O)c1ccc(O)cn1 [nikkomycin Z]

Compound: C[C@@H]1[C@H](O)[C@@H](C)/C=C/C=C/C=C/C=C/C=C/C=C/C=C/[C@H](O[C@@H]2O[C@H](C)[C@@H](O)[C@H](N)[C@@H]2O)C[C@@H]2O[C@](O)(C[C@@H](O)C[C@@H](O)[C@H](O)CC[C@@H](O)C[C@@H](O)CC(=O)O[C@H]1C)C[C@H](O)[C@H]2C(=O)O [amphotericin B]
- minimum inhibitory concentration (MIC) for known antifungal agents (C. albicans): within reported ranges

Compound: CC1=C(CCO)C(=O)C(O)=C2C1=CC(=O)[C@H]1C(C)(C)CCC[C@]21C (relative stereo) [test compound]
- dose response of the effect ([2]; 20 and 40 mg/kg oral gavage): dose-responsive
- fungal organ burdens in the kidney, liver, and spleen ([2]; after 10 days, either concentration of the test compound, vs mice treated with fluconazole): less than or equal to one half the burdens in the same organs of mice treated with fluconazole
- median survival ([2]; oral gavage once a day for 10 days, vehicle control 7 days, p=0.0018 log rank test): 17.5 days

Compound: gentamicin
- MIC (S. aureus): ~0.6 mg/L
